Values of other authors as cited in patent publication US20140275235A1, “Treatment of Proliferative Disorders” (priority 2013, published 2014).

Settings: literature refs 11, 12

Bioavailability: 80%
Time to peak plasma levels: ≤ 2 h
SMILES: C[S+]([O-])CCCCN=C=S (centres unmarked) [SFN, sulforaphane]
